± gives the expanded uncertainty stated by the source.
Tests used:
[1] = 101 kPa, Liquid, Pycnometric method
[2] = xn = mol fraction of the nth substance listed; settings: 101 kPa, Liquid, Pycnometric method, x2 = 0

Row | Structure (SMILES) | mass density ([1]; 288.15 K) [kg/m3] | mass density ([1]; 293.15 K) [kg/m3] | mass density ([1]; 298.15 K) [kg/m3] | mass density ([1]; 303.15 K) [kg/m3] | mass density ([1]; 308.15 K) [kg/m3] | mass density ([1]; 313.15 K) [kg/m3] | mass density ([1]; 318.15 K) [kg/m3] | mass density ([2]; 288.15 K) [kg/m3] | mass density ([2]; 293.15 K) [kg/m3] | mass density ([2]; 298.15 K) [kg/m3] | mass density ([2]; 303.15 K) [kg/m3] | mass density ([2]; 308.15 K) [kg/m3] | mass density ([2]; 313.15 K) [kg/m3] | mass density ([2]; 318.15 K) [kg/m3]
1 | Cc1cc(C)cc(C)c1 [1,3,5-trimethylbenzene] | 869.28 ± 0.24 | 865.37 ± 0.23 | 861.45 ± 0.24 | 857.54 ± 0.25 | 853.63 ± 0.26 | 849.71 ± 0.27 | 845.8 ± 0.28 | – | – | – | – | – | – | –
2 | Cc1cccc(C)c1 [1,3-dimethylbenzene] | 868.59 ± 0.22 | 864.31 ± 0.21 | 860.02 ± 0.22 | 855.74 ± 0.23 | 851.45 ± 0.24 | 847.17 ± 0.25 | 842.88 ± 0.26 | – | – | – | – | – | – | –
3 | c1ccccc1 [benzene] + C=CC(=O)OCCCC | – | – | – | – | – | – | – | 884.3 ± 0.22 | 878.95 ± 0.2 | 873.61 ± 0.21 | 868.26 ± 0.22 | 862.9 ± 0.23 | 857.56 ± 0.24 | 852.23 ± 0.25
4 | Cc1ccc(C)cc1 [1,4-dimethylbenzene] | 865.52 ± 0.22 | 861.17 ± 0.2 | 856.82 ± 0.21 | 852.47 ± 0.22 | 848.12 ± 0.23 | 843.77 ± 0.24 | 839.42 ± 0.25 | – | – | – | – | – | – | –
5 | Cc1ccccc1 [toluene] | 871.79 ± 0.21 | 867.08 ± 0.2 | 862.36 ± 0.21 | 857.64 ± 0.22 | 852.93 ± 0.23 | 848.21 ± 0.24 | 843.49 ± 0.25 | – | – | – | – | – | – | –
6 | Cc1ccccc1C [1,2-dimethylbenzene] + C=CC(=O)OCCCC | – | – | – | – | – | – | – | 884.09 ± 0.22 | 879.83 ± 0.21 | 875.57 ± 0.22 | 871.31 ± 0.23 | 867.05 ± 0.24 | 862.79 ± 0.25 | 858.53 ± 0.26
7 | Cc1cccc(C)c1 [1,3-dimethylbenzene] + C=CC(=O)OCCCC | – | – | – | – | – | – | – | 868.59 ± 0.22 | 864.31 ± 0.21 | 860.02 ± 0.22 | 855.74 ± 0.23 | 851.45 ± 0.24 | 847.17 ± 0.25 | 842.88 ± 0.26
8 | C=CC(=O)OCCCC [butyl 2-propenoate] | 903.6 ± 0.27 | 898.85 ± 0.26 | 894.1 ± 0.27 | 889.35 ± 0.28 | 884.6 ± 0.29 | 879.85 ± 0.3 | 875.1 ± 0.31 | – | – | – | – | – | – | –
9 | Cc1ccccc1C [1,2-dimethylbenzene] | 884.09 ± 0.22 | 879.83 ± 0.21 | 875.57 ± 0.22 | 871.31 ± 0.23 | 867.05 ± 0.24 | 862.79 ± 0.25 | 858.53 ± 0.26 | – | – | – | – | – | – | –
10 | c1ccccc1 [benzene] | 884.3 ± 0.22 | 878.95 ± 0.2 | 873.61 ± 0.21 | 868.26 ± 0.22 | 862.9 ± 0.23 | 857.56 ± 0.24 | 852.23 ± 0.25 | – | – | – | – | – | – | –
11 | Cc1cc(C)cc(C)c1 [1,3,5-trimethylbenzene] + C=CC(=O)OCCCC | – | – | – | – | – | – | – | 869.28 ± 0.24 | 865.37 ± 0.23 | 861.45 ± 0.24 | 857.54 ± 0.25 | 853.63 ± 0.26 | 849.71 ± 0.27 | 845.8 ± 0.28
12 | Cc1ccc(C)cc1 [1,4-dimethylbenzene] + C=CC(=O)OCCCC | – | – | – | – | – | – | – | 865.52 ± 0.22 | 861.17 ± 0.2 | 856.82 ± 0.21 | 852.47 ± 0.22 | 848.12 ± 0.23 | 843.77 ± 0.24 | 839.42 ± 0.25
13 | Cc1ccccc1 [toluene] + C=CC(=O)OCCCC | – | – | – | – | – | – | – | 871.79 ± 0.21 | 867.08 ± 0.2 | 862.36 ± 0.21 | 857.64 ± 0.22 | 852.93 ± 0.23 | 848.21 ± 0.24 | 843.49 ± 0.25

— the NIST ThermoML archive (doi:10.1007/s10765-010-0768-y)
